Assay results reported in patent publication US20090048190A1, “Antiviral activity and resolution of 2-hydroxymethyl-5(5-fluorocytosin-1-yl)-1,3-oxathiolane” (priority 1990, published 2009).
Where two headings read alike, the source gives them in different places.

Key:
HIV = test: microbe, parasite or virus in culture; format: cell-based; settings: MT4 system
FIV = test: Antiretroviral activity in different cell systems, FIV; format: cell-based; settings: CrFK (61E)
[1] = tested on: uninfected human PBM cells
Source text: The cells were counted after 6 days using a hemacytometer and the trypan blue exclusion method, as described by Schinazi et al., Antimicrobial Agents and Chemotherapy, 22(3), 499 (1982).

human PBM cells = settings: 10 μM radiolabeled FTC
Experimental: All studies were conducted in duplicate. […] Cells were exposed to the drug for 2, 6, 12, and 24 hours. At these timepoints, the medium was removed and the cells were washed two times with cold Hank's balanced salt solution. Extraction was performed with addition of 0.2 ml of 60% cold methanol/water and stored overnight at −70° C. The following morning, the suspensions were centrifuged and extractions were repeated two times for 0.5 hours at −70° C. The total supernatants (0.6 ml) were lyophilized to dryness. The residues were resuspended in 250 μl of water and aliquots of between 50 and 100 μl were analyzed by HPLC. Quantitation of intracellular parent drug and metabolic derivatives were conducted by HPLC.

[2] = CSF/serum ratio in rhesus monkeys; format: in vivo; settings: 33.3 mg/kg, one hour after administration
HepG2 cells = settings: 10 μM [3H]-(±)-FTC
[3] = Pharmacokinetics after intravenous administration to rats
HIV-2 = test: Antiretroviral activity in different cell systems, HIV-2; format: cell-based; settings: PBMC (ROD2)
Experimental: Cell lines were obtained from either human donors, AIDS Research and Reference Reagent Program, NIH, Rockville, Md., ATCC, or the Red Cross. The CEM thymidine kinase deficient cells were prepared by sequential passage of CEM cells in the presence of 5-bromo-2′-deoxyuridine.

HIV-1 (strain LAV) = format: cell-based
Source text: It is often desirable to screen a number of racemic mixtures of nucleosides as a preliminary step to determine which warrant further resolution into enantiomerically enriched components and further evaluation of antiviral activity. The ability of nucleosides to inhibit HIV can be measured by various experimental techniques. The technique used herein, and described in detail below, measures the inhibition of viral replication in phytohemagglutinin (PHA) stimulated human peripheral blood mononuclear (PBM) cells infected with HIV-1 (strain LAV). The amount of virus produced is determined by measuring the virus-coded reverse transcriptase enzyme. The amount of enzyme produced is proportional to the amount of virus produced.
A. Three-day-old phytohemagglutinin-stimulated PBM cells (10^6 cells/ml) from hepatitis B and HIV-1 seronegative healthy donors were infected with HIV-1 (strain LAV) at a concentration of about 100 times the 50% tissue culture infectious dose (TICD 50) per ml and cultured in the presence and absence of various concentrations of antiviral compounds.
B. Approximately one hour after infection, the medium, with the compound to be tested (2 times the final concentration in medium) or without compound, was added to the flasks (5 ml; final volume 10 ml). AZT was used as a positive control.
C. The cells were exposed to the virus (about 2×10^5 dpm/ml, as determined by reverse transcriptase assay) and then placed in a CO2 incubator. HIV-1 (strain LAV) was obtained from the Center for Disease Control, Atlanta, Ga. The methods used for culturing the PBM cells, harvesting the virus and determining the reverse transcriptase activity were those described by McDougal et al. (J. Immun. Meth. 76, 171-183, 1985) and Spira et al. (J. Clin. Meth. 25, 97-99, 1987), except that fungizone was not included in the medium (see Schinazi, et al., Antimicrob. Agents Chemother. 32, 1784-1787 (1988); Id., 34:1061-1067 (1990)).
D. On day 6, the cells and supernatant were transferred to a 15 ml tube and centrifuged at about 900 g for 10 minutes. Five ml of supernatant were removed and the virus was concentrated by centrifugation at 40,000 rpm for 30 minutes (Beckman 70.1 Ti rotor). The solubilized virus pellet was processed for determination of the levels of reverse transcriptase. Results are expressed in dpm/ml of sampled supernatant. Virus from smaller volumes of supernatant (1 ml) can also be concentrated by centrifugation prior to solubilization and determination of reverse transcriptase levels.

Compound: Nc1nc(=O)n([C@@H]2CS[C@H](CO)O2)cc1F (racemic) [(±)-FTC, (±)-β-D,L-2-hydroxymethyl-5-(5-fluorocytosin-1-yl)-1,3-oxathiolane]
- IC50 (HIV): 520 nM
- EC50 (FIV): ≤ 1000 nM
- IC50 [1]: > 100000 nM
- uptake in human lymphocytes (human PBM cells): readily taken up
- ability to cross the blood-brain barrier [2]: significant amount of active compound passes through the blood-brain barrier
- uptake by HepG2 cells (HepG2 cells): taken up by HepG2 cells in large amounts
- CLT ([3]; 10 mg/kg): 16.5 mL/min/kg
- CLT ([3]; 50 mg/kg): 14.6 mL/min/kg
- MRT ([3]; 50 mg/kg): 48 min
- CLT ([3]; 100 mg/kg): 13.8 mL/min/kg
- toxicity (CEM cells): > 100 µM
- EC50 (HIV-2): 3.8 nM
- % Inhibition (Corrected) (HIV-1 (strain LAV); 0.0001 μM): 26.6%
- DPM/ml (HIV-1 (strain LAV); 0.0001 μM): 73,755 DPM/ml
- % Inhibition (Corrected) (HIV-1 (strain LAV); 0.005 μM): 16.3%
- DPM/ml (HIV-1 (strain LAV); 0.005 μM): 83,005 DPM/ml
- % Inhibition (Corrected) (HIV-1 (strain LAV); 0.01 μM): 41.3%
- DPM/ml (HIV-1 (strain LAV); 0.01 μM): 60,465 DPM/ml
- % Inhibition (Corrected) (HIV-1 (strain LAV); 0.05 μM): 70.4%
- DPM/ml (HIV-1 (strain LAV); 0.05 μM): 34,120 DPM/ml
- % Inhibition (Corrected) (HIV-1 (strain LAV); 0.1 μM): 92.4%
- DPM/ml (HIV-1 (strain LAV); 0.1 μM): 14,160 DPM/ml
- % Inhibition (Corrected) (HIV-1 (strain LAV); 0.5 μM): 88.1%
- DPM/ml (HIV-1 (strain LAV); 0.5 μM): 18,095 DPM/ml
- % Inhibition (Corrected) (HIV-1 (strain LAV); 1 μM): 99.7%
- DPM/ml (HIV-1 (strain LAV); 1 μM): 7,555 DPM/ml
- % Inhibition (Corrected) (HIV-1 (strain LAV); 5 μM): 99.3%
- DPM/ml (HIV-1 (strain LAV); 5 μM): 7,940 DPM/ml
- % Inhibition (Corrected) (HIV-1 (strain LAV); 10 μM): 101.7%
- DPM/ml (HIV-1 (strain LAV); 10 μM): 5,810 DPM/ml
- EC50 (HIV-1 (strain LAV); PBM cells, read-out: activity in PBM cells): ~10 nM
- EC50 (HIV-1 (strain LAV); enantiomers resolved by HPLC (Example 4), Table 4, read-out: EC50): 18 nM
- EC50 (HIV-1 (strain LAV); enantiomers resolved by method of Example 3, FIG. 6, read-out: EC50): 17 nM
- EC50 (HIV-1 (strain LAV); human PBM cells, HIV-1 strain LAV, Table 3, read-out: Antiviral EC50): 10 nM
- toxicity (Vero cells): > 100 µM
- VSS (I.V., 33.3 mg/kg, individual monkeys (RUh, RMi, RJd)): 2.00 L/kg
- F (bioavailability) (P.O., 33.3 mg/kg, individual monkeys (RUh, RMi, RJd)): 80%
- plasma terminal half life (rhesus monkeys, mean of oral and I.V. administration): approximately 1.34±0.18
- nontoxic at concentrations up to (other cell lines): up to 200 μM
